US10544143B2, “4-azaindole compounds” (BRISTOL-MYERS SQUIBB COMPANY, priority 2017, dated 2020)
Read-outs that look alike come from different tables or passages of the source.

How the values were obtained:
[1] = target: human TLR8 (Homo sapiens (Human), UniProt Q9NR97); assay: TLR8 inhibition reporter assay (HEK-Blue SEAP); settings: read-out: TLR8 IC50;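 note: SEAP driven by IFN-β minimal promoter carrying NF-κB and AP-1 sites, compounds dosed 0.05 nM to 50 µM for 22 h, inhibition scaled between agonist-plus-DMSO and reference-inhibitor wells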
Chain of human TLR8 (Q9NR97 27-1041): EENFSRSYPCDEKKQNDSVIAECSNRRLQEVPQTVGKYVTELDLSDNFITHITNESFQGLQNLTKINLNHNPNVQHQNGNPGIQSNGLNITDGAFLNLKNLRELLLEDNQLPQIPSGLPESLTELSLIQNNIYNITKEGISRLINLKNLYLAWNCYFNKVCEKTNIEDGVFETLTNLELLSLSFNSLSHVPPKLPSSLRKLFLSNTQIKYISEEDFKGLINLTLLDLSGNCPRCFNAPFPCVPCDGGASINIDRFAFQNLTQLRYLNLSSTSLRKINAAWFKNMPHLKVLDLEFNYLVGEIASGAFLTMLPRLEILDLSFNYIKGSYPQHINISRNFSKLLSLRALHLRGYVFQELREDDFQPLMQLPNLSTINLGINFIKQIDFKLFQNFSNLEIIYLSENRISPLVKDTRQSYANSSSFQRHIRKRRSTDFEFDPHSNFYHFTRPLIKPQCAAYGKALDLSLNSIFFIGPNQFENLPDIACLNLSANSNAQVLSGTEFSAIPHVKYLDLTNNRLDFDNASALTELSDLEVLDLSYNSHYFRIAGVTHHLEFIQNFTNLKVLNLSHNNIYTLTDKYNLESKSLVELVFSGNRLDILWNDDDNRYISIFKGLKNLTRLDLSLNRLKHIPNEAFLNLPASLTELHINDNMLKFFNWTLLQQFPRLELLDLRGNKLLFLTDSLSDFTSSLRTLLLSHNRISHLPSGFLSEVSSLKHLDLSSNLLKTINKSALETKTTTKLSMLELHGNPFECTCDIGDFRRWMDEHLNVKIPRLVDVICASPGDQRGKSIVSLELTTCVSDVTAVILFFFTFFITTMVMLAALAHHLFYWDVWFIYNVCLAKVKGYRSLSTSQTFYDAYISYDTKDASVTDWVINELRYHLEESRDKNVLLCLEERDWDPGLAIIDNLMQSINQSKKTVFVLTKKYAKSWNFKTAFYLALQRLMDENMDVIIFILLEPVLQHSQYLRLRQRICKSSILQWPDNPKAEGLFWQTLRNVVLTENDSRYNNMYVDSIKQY
Method: HEK-Blue™-cells (Invivogen) overexpressing human TLR7, TLR8 or TLR9 receptors were used for screening inhibitors of these receptors using an inducible SEAP (secreted embryonic alkaline phosphatase) reporter gene under the control of the IFN-β minimal promoter fused to five NF-κB and AP-1-binding sites. Briefly, cells are seeded into Greiner 384 well plates (15000 cells per well for TLR7, 20,000 for TLR8 and 25,000 for TLR9) and then treated with test compounds in DMSO to yield a final dose response concentration range of 0.05 nM-50 μM. After a 30 minute compound pre-treatment at room temperature, the cells are then stimulated with a TLR7 ligand (gardiquimod at a final concentration of 7.5 μM), TLR8 ligand (R848 at a final concentration of 15.9 μM) or TLR9 ligand (ODN2006 at a final concentration of 5 nM) to activate NF-κB and AP-1 which induce the production of SEAP. After a 22 hour incubation at 37° C., 5% CO2, SEAP levels are determined with the addition of HEK-Blue™ Detection reagent (Invivogen), a cell culture medium that allows for detection of SEAP, according to manufacturer's specifications.

[2] = target: TLR7 (Mus musculus (Mouse), UniProt P58681); assay: In vivo mouse TLR7 PD model (gardiquimod challenge, plasma IL-6 and IFN-alpha); settings: C57BL/6 mice, plasma 90 min after gardiquimod i.p., vs vehicle
Chain of TLR7 (P58681 27-1050): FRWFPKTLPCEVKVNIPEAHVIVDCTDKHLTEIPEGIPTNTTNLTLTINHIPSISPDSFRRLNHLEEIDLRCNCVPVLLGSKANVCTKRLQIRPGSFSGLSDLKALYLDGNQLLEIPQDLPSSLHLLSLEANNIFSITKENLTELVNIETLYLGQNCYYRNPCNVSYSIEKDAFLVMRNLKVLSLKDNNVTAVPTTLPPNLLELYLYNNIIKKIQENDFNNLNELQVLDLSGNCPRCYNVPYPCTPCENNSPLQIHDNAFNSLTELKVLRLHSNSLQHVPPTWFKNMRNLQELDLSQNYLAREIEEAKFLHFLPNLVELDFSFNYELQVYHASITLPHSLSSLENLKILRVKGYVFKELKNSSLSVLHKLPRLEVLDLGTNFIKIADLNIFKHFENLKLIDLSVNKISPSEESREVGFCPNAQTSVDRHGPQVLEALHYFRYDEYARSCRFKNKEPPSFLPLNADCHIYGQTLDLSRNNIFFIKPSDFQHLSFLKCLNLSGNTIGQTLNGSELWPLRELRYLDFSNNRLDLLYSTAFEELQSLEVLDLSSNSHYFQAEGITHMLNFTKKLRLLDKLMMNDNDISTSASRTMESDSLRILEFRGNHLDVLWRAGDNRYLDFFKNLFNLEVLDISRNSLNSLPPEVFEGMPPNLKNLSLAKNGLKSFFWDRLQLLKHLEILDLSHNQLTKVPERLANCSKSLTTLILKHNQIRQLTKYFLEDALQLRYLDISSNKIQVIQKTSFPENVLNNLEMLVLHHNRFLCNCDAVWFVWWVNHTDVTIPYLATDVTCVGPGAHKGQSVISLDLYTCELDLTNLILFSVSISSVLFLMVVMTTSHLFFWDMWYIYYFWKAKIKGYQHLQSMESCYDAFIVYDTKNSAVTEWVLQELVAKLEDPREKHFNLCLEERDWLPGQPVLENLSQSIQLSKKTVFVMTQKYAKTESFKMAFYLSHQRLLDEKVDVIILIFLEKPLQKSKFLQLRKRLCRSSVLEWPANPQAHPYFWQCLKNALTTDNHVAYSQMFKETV
Method: In Vivo Mouse TLR7 PD Model:
Adult male C57BL/6 mice were used for the experiments. Mice (7 to 10 per group) were randomized into different treatment groups based on body weight. Mice from the respective treatment groups were administered orally with vehicle or test compound. Thirty min after the oral administration of vehicle or test compound, mice were challenged with intraperitoneal injection of gardiquimod for TLR7 PD model. Ninety minutes after gardiquimod injection, mice were bled under isoflurane anaesthesia and plasma IL-6 and IFN-alpha levels were estimated by using commercially available ELISA kit (BD Biosciences, PBL Life Sciences). At the end of experiment, mean cytokine data was plotted and one way ANOVA with Dunnett's test was performed to calculate the significance of test compound treated group vs. vehicle control group. Percent inhibition of cytokine induction was calculated for test compound treated group vs vehicle control group.

[3] = target: human TLR7 (Homo sapiens (Human), UniProt Q9NYK1); assay: TLR7 inhibition reporter assay (HEK-Blue SEAP); assay type: cell-based; settings: HEK-Blue cells overexpressing human TLR7, gardiquimod 7.5 μM stimulation, SEAP reporter
Chain of human TLR7 (Q9NYK1 27-1049): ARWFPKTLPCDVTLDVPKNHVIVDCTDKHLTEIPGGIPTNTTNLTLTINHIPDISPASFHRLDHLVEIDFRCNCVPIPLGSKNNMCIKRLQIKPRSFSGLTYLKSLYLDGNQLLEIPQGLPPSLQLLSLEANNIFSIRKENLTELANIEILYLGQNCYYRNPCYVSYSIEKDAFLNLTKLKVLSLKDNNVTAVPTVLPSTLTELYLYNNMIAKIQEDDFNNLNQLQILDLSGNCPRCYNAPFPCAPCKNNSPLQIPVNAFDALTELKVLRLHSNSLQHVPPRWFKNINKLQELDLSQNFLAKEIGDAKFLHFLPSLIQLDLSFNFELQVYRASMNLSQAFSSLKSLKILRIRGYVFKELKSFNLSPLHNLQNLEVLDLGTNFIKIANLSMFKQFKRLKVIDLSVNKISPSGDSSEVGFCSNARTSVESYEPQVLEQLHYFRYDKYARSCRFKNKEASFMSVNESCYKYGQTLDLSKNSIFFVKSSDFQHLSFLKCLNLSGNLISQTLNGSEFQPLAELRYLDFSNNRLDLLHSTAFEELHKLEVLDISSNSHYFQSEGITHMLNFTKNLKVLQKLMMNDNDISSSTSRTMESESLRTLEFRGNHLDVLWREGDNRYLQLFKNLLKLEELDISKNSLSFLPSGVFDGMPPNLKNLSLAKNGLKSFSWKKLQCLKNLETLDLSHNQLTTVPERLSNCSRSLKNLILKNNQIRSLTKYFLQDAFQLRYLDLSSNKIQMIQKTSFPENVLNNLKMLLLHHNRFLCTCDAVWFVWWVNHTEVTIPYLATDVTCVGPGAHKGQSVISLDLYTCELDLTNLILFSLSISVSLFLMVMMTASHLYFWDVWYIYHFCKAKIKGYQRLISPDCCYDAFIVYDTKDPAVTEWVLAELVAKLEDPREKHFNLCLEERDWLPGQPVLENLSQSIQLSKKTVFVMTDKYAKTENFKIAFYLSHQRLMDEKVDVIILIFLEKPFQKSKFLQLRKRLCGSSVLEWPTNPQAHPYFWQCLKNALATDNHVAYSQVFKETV

[4] = target: human TLR9 (Homo sapiens (Human), UniProt Q9NR96); assay: TLR9 inhibition reporter assay (HEK-Blue SEAP); settings: read-out: TLR9 IC50;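 note: SEAP driven by an IFN-β minimal promoter with NF-κB and AP-1 sites, read after 22 h, compounds dosed 0.05 nM–50 µM, inhibition scaled between agonist plus DMSO and reference-inhibitor wells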
Chain of human TLR9 (Q9NR96 26-1032): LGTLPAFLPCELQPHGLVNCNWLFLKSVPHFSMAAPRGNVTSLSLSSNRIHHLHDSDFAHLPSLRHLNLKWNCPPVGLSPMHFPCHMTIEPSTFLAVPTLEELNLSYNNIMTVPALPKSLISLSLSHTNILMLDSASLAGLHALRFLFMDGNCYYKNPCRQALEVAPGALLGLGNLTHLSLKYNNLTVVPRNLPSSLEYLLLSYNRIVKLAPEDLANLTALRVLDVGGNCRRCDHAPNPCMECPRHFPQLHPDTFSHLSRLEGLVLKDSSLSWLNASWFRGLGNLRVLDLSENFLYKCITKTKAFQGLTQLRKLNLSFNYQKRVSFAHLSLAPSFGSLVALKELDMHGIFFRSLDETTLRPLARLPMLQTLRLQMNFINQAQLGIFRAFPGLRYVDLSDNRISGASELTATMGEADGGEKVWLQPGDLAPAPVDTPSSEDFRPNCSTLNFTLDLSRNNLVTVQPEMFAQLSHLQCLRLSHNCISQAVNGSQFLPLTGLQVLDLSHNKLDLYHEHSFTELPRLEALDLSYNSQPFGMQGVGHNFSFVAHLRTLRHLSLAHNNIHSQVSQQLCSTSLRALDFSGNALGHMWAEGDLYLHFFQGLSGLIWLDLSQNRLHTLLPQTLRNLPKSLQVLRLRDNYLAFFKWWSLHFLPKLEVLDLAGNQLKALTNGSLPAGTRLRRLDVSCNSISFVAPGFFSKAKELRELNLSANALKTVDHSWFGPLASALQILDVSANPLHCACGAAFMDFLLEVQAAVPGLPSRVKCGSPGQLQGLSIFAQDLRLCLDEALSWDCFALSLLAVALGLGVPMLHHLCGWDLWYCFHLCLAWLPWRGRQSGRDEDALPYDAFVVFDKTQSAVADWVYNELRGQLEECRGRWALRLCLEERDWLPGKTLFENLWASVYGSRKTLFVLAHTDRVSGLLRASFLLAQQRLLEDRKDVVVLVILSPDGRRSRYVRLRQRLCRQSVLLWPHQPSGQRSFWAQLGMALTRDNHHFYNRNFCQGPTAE

[5] = tested on: MRL/lpr mice; assay: MRL/lpr model of SLE; assay type: in vivo, mouse; settings: vs vehicle; for IL-10, percent reduction in disease severity / IL-12p40, percent reduction in disease severity: plasma
Method: Male MRL/lpr mice of 12-14 weeks age were screened and randomized based on the titres of anti-dsDNA antibodies and urinary NGAL (Neutrophil Gelatinase Associated Lipocalin). Mice were treated orally, once daily for 8 weeks with vehicle or test compound. The effect of test compound on disease severity was assessed by measuring end points including proteinuria, urinary-NGAL, urinary TIMP1, blood urea nitrogen (BUN), anti-dsDNA Ab, anti-smRNP Ab titer, and plasma levels of IL10 and IL12p40. At the end of experiment, all mice were euthanized by CO2 asphyxiation and kidney samples were subjected for histology. To calculate the significance of test compound treated group vs. vehicle control group, one way ANOVA with Dunnett's test was performed. Percent reduction in disease severity was calculated for each parameter, for test compound treated group vs vehicle control group.

[6] = HEK-Blue cells overexpressing human TLR8, R848 15.9 μM stimulation, SEAP reporter
[7] = HEK-Blue cells overexpressing human TLR9, ODN2006 5 nM stimulation, SEAP reporter
[8] = 0.1 mg/kg oral once daily 8 weeks
[9] = 0.3 mg/kg oral once daily 8 weeks
[10] = 1 mg/kg oral once daily 8 weeks
[11] = 3 mg/kg oral once daily 8 weeks
[12] = 10 mg/kg oral once daily 8 weeks

Cc1c(-c2[nH]c3ccc(N4CCN(C(=O)CN(C)C)CC4)nc3c2C(C)C)cn2ncnc2c1C [Example 3, 1-(4-(2-(7,8-dimethyl-[1,2,4]triazolo[1,5-a]pyridin-6-yl)-3-isopropyl-1H-pyrrolo[3,2-b]pyridin-5-yl)piperazin-1-yl)-2-(dimethylamino)ethan-1-one]
IC50 [1, 6]: 1.1 nM
% inhibition of IFN-alpha ([2]; 0.005 mg/kg oral): 29%
% inhibition of IL6 ([2]; 0.005 mg/kg oral): 0%
% inhibition of IFN-alpha ([2]; 0.01 mg/kg oral): 37%
% inhibition of IL6 ([2]; 0.01 mg/kg oral): 24%
% inhibition of IFN-alpha ([2]; 0.05 mg/kg oral): 94%
% inhibition of IL6 ([2]; 0.05 mg/kg oral): 75%
% inhibition of IFN-alpha ([2]; 0.25 mg/kg oral): 99%
% inhibition of IL6 ([2]; 0.25 mg/kg oral): 90%
% inhibition of IFN-alpha ([2]; 0.5 mg/kg oral): 100%
% inhibition of IL6 ([2]; 0.5 mg/kg oral): 91%
IC50 [3]: 0.93 nM
IC50 [4, 7]: 8540 nM

Cc1c(-c2[nH]c3ccc(C4CCC(NCC5(S(C)(=O)=O)CC5)CC4)nc3c2C(C)C)cn2ncnc2c1C (stereo not shown) [Example 4, 4-(2-(7,8-dimethyl-[1,2,4]triazolo[1,5-a]pyridin-6-yl)-3-isopropyl-1H-pyrrolo[3,2-b]pyridin-5-yl)-N-((1-(methylsulfonyl)cyclopropyl)methyl)cyclohexan-1-amine]
IC50 [1, 6]: 0.71 nM
% inhibition of IFN-alpha ([2]; 0.0015 mg/kg oral): 0%
% inhibition of IL6 ([2]; 0.0015 mg/kg oral): 0%
% inhibition of IFN-alpha ([2]; 0.003 mg/kg oral): 33%
% inhibition of IL6 ([2]; 0.003 mg/kg oral): 23%
% inhibition of IFN-alpha ([2]; 0.015 mg/kg oral): 74%
% inhibition of IL6 ([2]; 0.015 mg/kg oral): 75%
% inhibition of IFN-alpha ([2]; 0.075 mg/kg oral): 93%
% inhibition of IL6 ([2]; 0.075 mg/kg oral): 76%
% inhibition of IFN-alpha ([2]; 0.15 mg/kg oral): 99%
% inhibition of IL6 ([2]; 0.15 mg/kg oral): 95%
IC50 [3]: 0.6 nM
IC50 [4, 7]: 1070 nM

Cc1c(-c2[nH]c3ccc(C4CCC(N5CC6(C5)CS(=O)(=O)C6)CC4)nc3c2C(C)C)cn2ncnc2c1C (stereo not shown) [Example 438, 6-((1r,4r)-(4-(2-(7,8-dimethyl-[1,2,4]triazolo[1,5-a]pyridin-6-yl)-3-isopropyl-1H-pyrrolo[3,2-b]pyridin-5-yl)cyclohexyl)-2-thia-6-azaspiro[3.3]heptane 2,2-dioxide]
IL-10, percent reduction in disease severity [5, 8]: 0%
IL-12p40, percent reduction in disease severity [5, 8]: 16%
Anti-SmRNP Ab titer, percent reduction in disease severity [5, 8]: 23%
Anti-dsDNA Ab titer, percent reduction in disease severity [5, 8]: 0%
Proteinuria, percent reduction in disease severity [5, 8]: 31%
Urinary NGAL, percent reduction in disease severity [5, 8]: 34%
Urinary TIMP1, percent reduction in disease severity [5, 8]: 0%
IL-10, percent reduction in disease severity [5, 9]: 18%
IL-12p40, percent reduction in disease severity [5, 9]: 33%
Anti-SmRNP Ab titer, percent reduction in disease severity [5, 9]: 44%
Anti-dsDNA Ab titer, percent reduction in disease severity [5, 9]: 28%
Proteinuria, percent reduction in disease severity [5, 9]: 80%
Urinary NGAL, percent reduction in disease severity [5, 9]: 58%
Urinary TIMP1, percent reduction in disease severity [5, 9]: 42%
IL-10, percent reduction in disease severity [5, 10]: 19%
IL-12p40, percent reduction in disease severity [5, 10]: 26%
Anti-SmRNP Ab titer, percent reduction in disease severity [5, 10]: 49%
Anti-dsDNA Ab titer, percent reduction in disease severity [5, 10]: 39%
Proteinuria, percent reduction in disease severity [5, 10]: 73%
Urinary NGAL, percent reduction in disease severity [5, 10]: 63%
Urinary TIMP1, percent reduction in disease severity [5, 10]: 54%
IL-10, percent reduction in disease severity [5, 11]: 21%
IL-12p40, percent reduction in disease severity [5, 11]: 28%
Anti-SmRNP Ab titer, percent reduction in disease severity [5, 11]: 43%
Anti-dsDNA Ab titer, percent reduction in disease severity [5, 11]: 44%
Proteinuria, percent reduction in disease severity [5, 11]: 82%
Urinary NGAL, percent reduction in disease severity [5, 11]: 67%
Urinary TIMP1, percent reduction in disease severity [5, 11]: 56%
IL-10, percent reduction in disease severity [5, 12]: 22%
IL-12p40, percent reduction in disease severity [5, 12]: 41%
Anti-SmRNP Ab titer, percent reduction in disease severity [5, 12]: 51%
Anti-dsDNA Ab titer, percent reduction in disease severity [5, 12]: 37%
Proteinuria, percent reduction in disease severity [5, 12]: 84%
Urinary NGAL, percent reduction in disease severity [5, 12]: 67%
Urinary TIMP1, percent reduction in disease severity [5, 12]: 79%
IC50 ([1]; HEK-Blue cells overexpressing human TLR8, SEAP reporter, R848 15.9 μM): 0.39 nM
% inhibition of IFN-alpha ([2]; 0.003 mg/kg oral): 36%
% inhibition of IL6 ([2]; 0.003 mg/kg oral): 25%
% inhibition of IFN-alpha ([2]; 0.006 mg/kg oral): 57%
% inhibition of IL6 ([2]; 0.006 mg/kg oral): 41%
% inhibition of IFN-alpha ([2]; 0.03 mg/kg oral): 67%
% inhibition of IL6 ([2]; 0.03 mg/kg oral): 56%
% inhibition of IFN-alpha ([2]; 0.15 mg/kg oral): 96%
% inhibition of IL6 ([2]; 0.15 mg/kg oral): 78%
% inhibition of IFN-alpha ([2]; 0.3 mg/kg oral): 98%
% inhibition of IL6 ([2]; 0.3 mg/kg oral): 82%
IC50 ([4]; HEK-Blue cells overexpressing human TLR9, SEAP reporter, ODN2006 5 nM): 1460 nM
